pEC50, pKd: −log10 of the molar value.

The source of these data is patent US20250361253A1, “STING AGONIST COMPOUNDS” (Sutro Biopharma, Inc., priority 2022, published 2025).

The target of test [1] is T1, hSTING WT (Homo sapiens, UniProt Q86WV6). Put plainly: Thermal shift assay (DSF). In kind it is binding. Set-up: unit not given here. Conditions: compound at 3.12 uM. From the text:
Thermal shift assay experimental methods were followed based on the published methods described in Ramanjulu et al. Nature, 2018, 564, 439.

The target in test [2] is T2, mSTING (Mus musculus, UniProt Q3TBT3).
T2 construct: host or cells: 293-Dual (HEK293-derived) reporter cells
T2 sequence (Q3TBT3 1-378): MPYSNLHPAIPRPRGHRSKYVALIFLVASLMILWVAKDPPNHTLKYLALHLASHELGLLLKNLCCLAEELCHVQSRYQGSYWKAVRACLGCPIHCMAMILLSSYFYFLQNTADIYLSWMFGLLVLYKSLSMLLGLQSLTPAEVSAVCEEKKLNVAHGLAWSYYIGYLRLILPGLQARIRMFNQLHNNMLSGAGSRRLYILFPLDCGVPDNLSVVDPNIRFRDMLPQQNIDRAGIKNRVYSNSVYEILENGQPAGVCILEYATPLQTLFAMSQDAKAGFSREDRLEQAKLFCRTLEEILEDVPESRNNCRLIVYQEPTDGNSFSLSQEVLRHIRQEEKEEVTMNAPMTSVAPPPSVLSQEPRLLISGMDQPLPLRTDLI
Put plainly: ISG reporter induction in 293-Dual mSTING reporter cells (QUANTI-Blue). In kind it is cell-based. To be noted: 293-Dual mSTING cells, overnight incubation. As for the experimental part:
(§1) Certain STING compounds of the disclosure were evaluated in an in vitro cell based assay.
(§2) 293-Dual hSTING-R232 and mSTING cells (Invivogen) were seeded at 25,000 cells/well (50 ul) and co-cultured with STING agonists (2× concentration, 50 ul) in clear, half-area, 96-well polystyrene plates. Cells and test samples were prepared in DMEM supplemented with 10% FBS, Glutamax, and PenStrep. After overnight incubation at 37 C in a CO2 incubator, 20 ul of supernatant was added to QUANTI-Blue detection reagent (Invivogen). After one hour incubation at 37 C, plates were read at 640/650 nm on EnVision plate reader (PerkinElmer). OD values were plotted by log(agonist) vs. response, variable slope, four parameter curve fit (Log transform) using GraphPad Prism software to determine EC50 values.

For test [3], the target named is T3, hSTING-R232 (Homo sapiens, UniProt Q86WV6, H232R).
T3 construct: host or cells: 293-Dual (HEK293-derived) reporter cells
Put plainly: ISG reporter induction in 293-Dual hSTING-R232 reporter cells (QUANTI-Blue). Conditions: 293-Dual hSTING-R232 cells, overnight incubation. In kind it is cell-based. The procedure:
as §1, §2

Test [4] deals with T1, hSTING WT. Put plainly: Surface plasmon resonance assay. In kind it is binding. To be noted: read-out: hSTING WT SPR (Kd). The procedure:
Surface plasmon resonance assay experimental methods were followed based on the published methods described in Pan et al., Science, 2020 369, eaba6098. (“A” means EC50≤20 nM).
On the technique in general: In SPR one partner is held on a chip, and binding of the other changes the refractive index at the surface.

T1 sequence (Q86WV6 155-341 H232R limits assumed): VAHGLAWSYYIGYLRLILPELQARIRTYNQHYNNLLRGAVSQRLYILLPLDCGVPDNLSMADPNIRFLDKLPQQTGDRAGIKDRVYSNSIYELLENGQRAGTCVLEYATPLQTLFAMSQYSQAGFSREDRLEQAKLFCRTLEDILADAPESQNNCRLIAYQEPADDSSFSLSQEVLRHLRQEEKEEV
T3 sequence (Q86WV6 whole entry H232R): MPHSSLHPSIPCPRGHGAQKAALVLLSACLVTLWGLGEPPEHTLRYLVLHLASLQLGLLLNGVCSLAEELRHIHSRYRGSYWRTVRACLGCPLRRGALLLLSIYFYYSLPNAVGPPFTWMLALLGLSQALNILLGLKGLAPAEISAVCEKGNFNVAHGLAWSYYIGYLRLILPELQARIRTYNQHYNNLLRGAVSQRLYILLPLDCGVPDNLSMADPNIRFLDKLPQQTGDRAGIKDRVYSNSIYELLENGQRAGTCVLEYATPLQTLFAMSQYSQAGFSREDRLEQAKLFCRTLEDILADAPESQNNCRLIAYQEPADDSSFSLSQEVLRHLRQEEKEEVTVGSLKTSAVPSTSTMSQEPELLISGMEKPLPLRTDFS

On to `COc1cc2sc(C(=O)CC(C)(C)C(=O)O)cc2c(F)c1OCCCOc1c(OC)cc2sc(C(=O)CS(=O)(=O)O)cc2c1F` [Compound 1, 4-(4-Fluoro-5-(3-((4-fluoro-6-methoxy-2-(2-sulfoacetyl)benzo[b]thiophen-5-yl)oxy)propoxy)-6-methoxybenzo[b]thiophen-2-yl)-2,2-dimethyl-4-oxobutanoic acid], for which, in test [1], the “hSTING WT DSF (delta TmD @ 3.12 uM)” value amounted to 20. Further, the figures for the pEC50 in test [2] and in test [3] were 6.82 to 7.30 and less than 6.82, respectively. The pKd in test [4] was not below 7.70.
For the molecule `COC(=O)C(C)(C)CC(=O)c1cc2c(F)c(OCCCOc3c(OC)cc4sc(C(=O)CP(=O)(O)O)cc4c3F)c(OC)cc2s1` [Compound 5, (2-(4-Fluoro-5-(3-((4-fluoro-6-methoxy-2-(4-methoxy-3,3-dimethyl-4-oxobutanoyl)benzo[b]thiophen-5-yl)oxy)propoxy)-6-methoxybenzo[b]thiophen-2-yl)-2-oxoethyl)phosphonic acid], in test [1], the “hSTING WT DSF (delta TmD @ 3.12 uM)” value is −0.1. The negative-log EC50 (pEC50) in test [2] and in test [3] was 6.82 to 7.30 throughout.
As for `COc1cc2sc(C(=O)CC(C)(C)C(=O)O)cc2c(F)c1OCCCOc1c(OC)cc2sc(C(=O)CP(=O)(O)O)cc2c1F` [Compound 6, 4-(4-Fluoro-5-(3-((4-fluoro-6-methoxy-2-(2-phosphonoacetyl)benzo[b]thiophen-5-yl)oxy)propoxy)-6-methoxybenzo[b]thiophen-2-yl)-2,2-dimethyl-4-oxobutanoic acid], the “hSTING WT DSF (delta TmD @ 3.12 uM)” value in test [1] came out at 20. Also, the pEC50 in test [2] and in test [3] was not below 7.30 each time. Moreover, in test [4], the negative-log Kd (pKd) was not below 7.70.
With `COc1cc2sc(C(=O)CCC(=O)O)cc2c(F)c1OCCCOc1c(OC)cc2sc(C(=O)CCP(=O)(O)O)cc2c1F` [Compound 7, 4-(4-Fluoro-5-(3-((4-fluoro-6-methoxy-2-(3-phosphonopropanoyl)benzo[b]thiophen-5-yl)oxy)propoxy)-6-methoxybenzo[b]thiophen-2-yl)-4-oxobutanoic acid], the “hSTING WT DSF (delta TmD @ 3.12 uM)” value in test [1] is on record as 20. The pEC50 in test [2] and in test [3] was not below 7.30 each time. Further, the pKd in test [4] was not below 7.70.
Consider `COc1cc2sc(C(=O)CC(C)(C)C(=O)O)cc2c(C)c1OCCCOc1c(OC)cc2sc(C(=O)CP(=O)(O)O)cc2c1C` [Compound 34], for which the pEC50 in test [2] and in test [3] was less than 6.82 in each case.

A word on the pEC50: it is the EC50 on a negative log10 scale, so that one unit is a factor of ten. What is called pKd is the negative decadic logarithm of the Kd, by convention in mol/L.
